The target of experiment [1] is T1, human FXR alpha ligand binding domain (Homo sapiens, UniProt Q96RI1).
T1 construct: made in house; host or cells: E. coli BL21(DE3), vector pDEST15
T1 sequence (Q96RI1 187-472 isoform Q96RI1-2): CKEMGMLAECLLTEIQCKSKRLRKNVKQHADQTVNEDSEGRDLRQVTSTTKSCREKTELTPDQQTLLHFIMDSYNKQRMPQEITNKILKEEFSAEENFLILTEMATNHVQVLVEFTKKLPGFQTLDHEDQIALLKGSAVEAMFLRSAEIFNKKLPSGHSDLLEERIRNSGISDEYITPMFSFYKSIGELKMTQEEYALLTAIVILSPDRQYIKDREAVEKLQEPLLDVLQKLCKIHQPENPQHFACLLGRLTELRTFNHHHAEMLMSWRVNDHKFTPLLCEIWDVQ
As to the kind of experiment: FRET activity assay (ligand mediated cofactor peptide interaction, LANCE). Format: biochemical. The note with it: GST-FXR-LBD / biotinylated SRC-1 peptide (676-700), read-out: F EC50. An outline of the steps: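 GST-tagged FXR LBD (aa 187–472, E. coli-expressed) at 20–60 ng/well with 200–600 nM biotinylated SRC-1 peptide (676–700), streptavidin-APC and Eu anti-GST in Tris pH 7.5 buffer, 1% DMSO, equilibrated 1 h dark at room temperature. TR-FRET read as 665/615 nm ratio; agonists raise signal above basal.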

The target in experiment [2] is T2, FXR ligand binding domain (Homo sapiens, UniProt Q96RI1).
T2 construct: expressed in transfected cells; host or cells: HEK293 cells, transiently transfected with pCMV-BD-FXR-LBD, pFR-Luc and pRL-CMV
T2 sequence (Q96RI1 187-472 isoform Q96RI1-2): T1 sequence (Q96RI1 187-472 isoform Q96RI1-2)
The experiment can be described thus: Mammalian One Hybrid (M1H) assay, Gal4 promoter driven transactivation in HEK293 cells. Format: cell-based. The following applies: Gal4-FXR-LBD luciferase reporter, 16 h. An outline of the steps:
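HEK293 cells were transiently co-transfected with Gal4-DBD fused to the human FXR LBD (aa 187-472, NM_005123), a 5×GAL4-site firefly luciferase reporter and CMV-Renilla control. Compounds were added 2-4 h post-transfection (vehicle ≤0.1%) in charcoal/dextran-stripped FBS medium for 16 h. Firefly and Renilla luciferase were read sequentially, in triplicate.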

A value given as a limit tells only on which side of the number the result lay.

In the case of `O=C(O)c1ccc2nc([C@]3(O)CC[C@@H](OCc4c(-c5ccccc5C5CC5)noc4C4CC4)CC3)sc2c1` [Example 11-11, 2-((1s,4s)-4-((5-Cyclopropyl-3-(2-cyclopropylphenyl)isoxazol-4-yl)methoxy)-1-hydroxycyclohexyl)benzo[d]thiazole-6-carboxylic acid], the results for the EC50 in experiment [1] and in experiment [2] were 1000 nM and 1400 nM, respectively.

On to `O=C(O)c1ccc2nc([C@]3(O)CC[C@@H](OCc4c(-c5c(C(F)F)cccc5C(F)F)noc4C4CC4)CC3)sc2c1` [Example 11-18, 2-((1s,4s)-4-((3-(2,6-Bis(difluoromethyl)phenyl)-5-cyclopropylisoxazol-4-yl)methoxy)-1-hydroxycyclohexyl)benzo[d]thiazole-6-carboxylic acid], for which the EC50 stood at 350 nM in experiment [1] and 170 nM in experiment [2].

In the case of `O=C(O)Cc1ccc([C@]2(O)CC[C@@H](OCc3c(-c4c(Cl)cccc4Cl)noc3C3CC3)CC2)c(F)c1` [Example 11-8, 2-(4-((1s,4s)-4-((5-Cyclopropyl-3-(2,6-dichlorophenyl)isoxazol-4-yl)methoxy)-1-hydroxycyclohexyl)-3-fluorophenyl)acetic acid], the EC50 in experiment [1] is 8000 nM; in experiment [2], above 3000 nM.

With `O=C(O)c1ccc2nc([C@]3(O)[C@@H]4CC5C[C@H]3C[C@](OCc3c(-c6c(Cl)cccc6Cl)noc3C3CC3)(C5)C4)sc2c1` [Example 11-36, 2-((1R,2s,3S,5s,7s)-5-((5-Cyclopropyl-3-(2,6-dichlorophenyl)isoxazol-4-yl)methoxy)-2-hydroxyadamantan-2-yl)benzo[d]thiazole-6-carboxylic acid], the EC50 came out at 1100 nM in experiment [1] and 930 nM in experiment [2].

Regarding `O[C@@]1(c2cnc3nn[nH]c3c2)[C@@H]2CC[C@H]1C[C@H](OCc1c(-c3c(Cl)cccc3Cl)noc1C1CC1)C2` [Example 34, (1R,3s,5S,8r)-8-(1H-[1,2,3]Triazolo[4,5-b]pyridin-6-yl)-3-((5-cyclopropyl-3-(2,6-dichlorophenyl)isoxazol-4-yl)methoxy)bicyclo[3.2.1]octan-8-ol], the EC50 in experiment [1] is 4.1 nM; in experiment [2] it was 5.3 nM.

Take `O=C(O)c1cc(F)c2nc([C@]3(O)C[C@@H](OCc4c(-c5c(Cl)cccc5Cl)noc4C4CC4)C3)sc2c1` [Example 11-21, 2-((1s,3s)-3-((5-Cyclopropyl-3-(2,6-dichlorophenyl)isoxazol-4-yl)methoxy)-1-hydroxycyclobutyl)-4-fluorobenzo[d]thiazole-6-carboxylic acid]: the results for the EC50 in experiment [1] and in experiment [2] were 23 nM and 310 nM, respectively.

For `CC(C)(Cc1cccc([C@]2(O)[C@@H]3CC[C@H]2C[C@H](OCc2c(-c4c(Cl)cccc4Cl)noc2C2CC2)C3)c1)C(=O)O` [Example 11-53, 3-(3-((1R,3s,5S,8r)-3-((5-Cyclopropyl-3-(2,6-dichlorophenyl)isoxazol-4-yl)methoxy)-8-hydroxybicyclo[3.2.1]octan-8-yl)phenyl)-2,2-dimethylpropanoic acid], the values for the EC50 in experiment [1] and in experiment [2] were 235 nM and 391 nM, respectively.

Consider `O=Cc1nsc2ccc([C@]3(O)CC[C@@H](OCc4c(-c5c(Cl)cccc5Cl)noc4C4CC4)CC3)cc12` [Example 32, 5-((1s,4s)-4-((5-Cyclopropyl-3-(2,6-dichlorophenyl)isoxazol-4-yl)methoxy)-1-hydroxycyclohexyl)benzo[d]isothiazole-3-carbaldehyde], for which the 50% effective concentration (EC50) is 190 nM in experiment [1] and 400 nM in experiment [2].

Regarding `O=C(O)c1ccc2nc([C@]3(O)CC[C@@H](OCc4c(C5CC5)cnn4-c4ccccc4OC(F)F)CC3)sc2c1` [Example 11-17, 2-((1s,4s)-4-((4-Cyclopropyl-1-(2-(difluoromethoxy)phenyl)-1H-pyrazol-5-yl)methoxy)-1-hydroxycyclohexyl)benzo[d]thiazole-6-carboxylic acid], the EC50 in experiment [1] was 980 nM; in experiment [2] it was 1800 nM.

As to `Cn1cc(C(=O)O)c2ccc([C@]3(O)CC[C@@H](OCc4c(-c5c(Cl)cccc5Cl)noc4C4CC4)CC3)cc21` [Example 11-42, 6-((1s,4s)-4-((5-Cyclopropyl-3-(2,6-dichlorophenyl)isoxazol-4-yl)methoxy)-1-hydroxycyclohexyl)-1-methyl-1H-indole-3-carboxylic acid], the values for the EC50 in experiment [1] and in experiment [2] were 20 nM and 36 nM, respectively.

In the case of `O=C(O)c1ccnc([C@]2(O)CC[C@@H](OCc3c(-c4c(Cl)cccc4Cl)noc3C3CC3)CC2)c1` [Example 11-6, 2-((1s,4s)-4-((5-Cyclopropyl-3-(2,6-dichlorophenyl)isoxazol-4-yl)methoxy)-1-hydroxycyclohexyl)isonicotinic acid], the EC50 amounted to 40 nM in experiment [1] and 51 nM in experiment [2].

Consider `O=C(O)c1ccc2nc([C@]3(O)CC[C@@H](OCc4c(C5CC5)cnn4-c4c(Cl)cccc4Cl)CC3)sc2c1` [Example 11-13, 2-((1s,4s)-4-((4-Cyclopropyl-1-(2,6-dichlorophenyl)-1H-pyrazol-5-yl)methoxy)-1-hydroxycyclohexyl)benzo[d]thiazole-6-carboxylic acid], for which the values for the EC50 in experiment [1] and in experiment [2] were 110 nM and 440 nM, respectively.

For `O[C@@]1(c2nc3ccc(CN4CCOCC4)cc3s2)[C@@H]2CC[C@H]1C[C@H](OCc1c(-c3c(Cl)cccc3Cl)noc1C1CC1)C2` [Example 43, (1R,3s,5S,8r)-3-((5-Cyclopropyl-3-(2,6-dichlorophenyl)isoxazol-4-yl)methoxy)-8-(6-(morpholinomethyl)benzo[d]thiazol-2-yl)bicyclo[3.2.1]octan-8-ol], the EC50 in experiment [1] and in experiment [2] was 15 nM in each case.

In the case of `O=C(O)c1ccc2nc([C@]3(O)CC[C@@H](OCc4c(-c5ccccc5C(F)F)noc4C4CC4)CC3)sc2c1` [Example 11-15, 2-((1s,4s)-4-((5-Cyclopropyl-3-(2-(difluoromethyl)phenyl)isoxazol-4-yl)methoxy)-1-hydroxycyclohexyl)benzo[d]thiazole-6-carboxylic acid], the EC50 in experiment [1] turned out to be 1500 nM; in experiment [2], 2200 nM.

`O=C(O)c1cnc2cc([C@]3(O)CC[C@@H](OCc4c(-c5c(Cl)cccc5Cl)noc4C4CC4)CC3)ccc2c1` [Example 11-43, 7-((1s,4s)-4-((5-Cyclopropyl-3-(2,6-dichlorophenyl)isoxazol-4-yl)methoxy)-1-hydroxycyclohexyl)quinoline-3-carboxylic acid]: the EC50 in experiment [1] came out at 16 nM; in experiment [2] it was 1800 nM.

With `O[C@]1(c2nc3c(F)cc(-c4nnn[nH]4)cc3s2)CC[C@H](OCc2c(-c3c(Cl)cccc3Cl)noc2C2CC2)CC1` [Example 21, (1s,4s)-4-((5-Cyclopropyl-3-(2,6-dichlorophenyl)isoxazol-4-yl)methoxy)-1-(4-fluoro-6-(1H-tetrazol-5-yl)benzo[d]thiazol-2-yl)cyclohexanol], the EC50 in experiment [1] came to 64 nM; in experiment [2] it was 1700 nM.

Turning to `CC1(C)C[C@](O)(c2nc3c(F)cc(C(=O)O)cc3s2)CC[C@H]1OCc1c(-c2c(Cl)cccc2Cl)noc1C1CC1` (racemic) [Example 11-33, 2-((1S,4R)-4-((5-Cyclopropyl-3-(2,6-dichlorophenyl)isoxazol-4-yl)methoxy)-1-hydroxy-3,3-dimethylcyclohexyl)-4-fluorobenzo[d]thiazole-6-carboxylic acid], the EC50 in experiment [1] is 36 nM; in experiment [2], 38 nM.

`O=C(O)c1ccc(C2(O)C[C@H]3CC(OCc4c(-c5c(Cl)cccc5Cl)noc4C4CC4)C[C@H]3C2)c(F)c1` (stereo partly drawn) [Example 11-47, 4-((3aR,6aS)-5-((5-Cyclopropyl-3-(2,6-dichlorophenyl)isoxazol-4-yl)methoxy)-2-hydroxyoctahydropentalen-2-yl)-3-fluorobenzoic acid]: the concentration giving a half-maximal response (EC50) in experiment [1] worked out at 12 nM; in experiment [2], 99 nM.

Turning to `O=C(O)c1ccc2nc([C@]3(O)CC[C@@H](OCc4c(-c5ccccc5OC(F)(F)F)noc4C4CC4)CC3)sc2c1` [Example 11-14, 2-((1s,4s)-4-((5-Cyclopropyl-3-(2-(trifluoromethoxy)phenyl)isoxazol-4-yl)methoxy)-1-hydroxycyclohexyl)benzo[d]thiazole-6-carboxylic acid], the EC50 in experiment [1] worked out at 230 nM; in experiment [2], 270 nM.

In the case of `O=C(O)CNC(=O)c1cc(F)c2nc([C@]3(O)[C@@H]4CC[C@H]3C[C@H](OCc3c(-c5c(Cl)cccc5Cl)noc3C3CC3)C4)sc2c1` [Example 38, 2-(2-((1R,3s,5S,8r)-3-((5-Cyclopropyl-3-(2,6-dichlorophenyl)isoxazol-4-yl)methoxy)-8-hydroxybicyclo[3.2.1]octan-8-yl)-4-fluorobenzo[d]thiazole-6-carboxamido)acetic acid], the EC50 was found to be 3 nM in experiment [1] and 1270 nM in experiment [2].

As to `OCc1ccc(F)c([C@]2(O)CC[C@@H](OCc3c(-c4c(Cl)cccc4Cl)noc3C3CC3)CC2)c1` [Example 9-7, (1s,4s)-4-((5-Cyclopropyl-3-(2,6-dichlorophenyl)isoxazol-4-yl)methoxy)-1-(2-fluoro-5-(hydroxymethyl)phenyl)cyclohexanol], the EC50 was 110 nM in experiment [1] and 150 nM in experiment [2].

(Values after US9751874B2, “Hydroxy containing FXR (NR1H4) modulating compounds” (Gilead Sciences, Inc., priority 2014, dated 2017).)
